# Results from US12281119B2, “Imidazo[2,1-f][1,2,4]triazin-4-amine derivatives as TLR7 agonist” (BEIGENE, LTD., priority 2019, dated 2025).
# Target: T1, human TLR 8 protein (Homo sapiens, UniProt Q9NR97)
# T1 construct: expressed in transfected cells; host or cells: HEK293 (HEK-Blue hTLR8)
# T1 sequence (Q9NR97 27-1041): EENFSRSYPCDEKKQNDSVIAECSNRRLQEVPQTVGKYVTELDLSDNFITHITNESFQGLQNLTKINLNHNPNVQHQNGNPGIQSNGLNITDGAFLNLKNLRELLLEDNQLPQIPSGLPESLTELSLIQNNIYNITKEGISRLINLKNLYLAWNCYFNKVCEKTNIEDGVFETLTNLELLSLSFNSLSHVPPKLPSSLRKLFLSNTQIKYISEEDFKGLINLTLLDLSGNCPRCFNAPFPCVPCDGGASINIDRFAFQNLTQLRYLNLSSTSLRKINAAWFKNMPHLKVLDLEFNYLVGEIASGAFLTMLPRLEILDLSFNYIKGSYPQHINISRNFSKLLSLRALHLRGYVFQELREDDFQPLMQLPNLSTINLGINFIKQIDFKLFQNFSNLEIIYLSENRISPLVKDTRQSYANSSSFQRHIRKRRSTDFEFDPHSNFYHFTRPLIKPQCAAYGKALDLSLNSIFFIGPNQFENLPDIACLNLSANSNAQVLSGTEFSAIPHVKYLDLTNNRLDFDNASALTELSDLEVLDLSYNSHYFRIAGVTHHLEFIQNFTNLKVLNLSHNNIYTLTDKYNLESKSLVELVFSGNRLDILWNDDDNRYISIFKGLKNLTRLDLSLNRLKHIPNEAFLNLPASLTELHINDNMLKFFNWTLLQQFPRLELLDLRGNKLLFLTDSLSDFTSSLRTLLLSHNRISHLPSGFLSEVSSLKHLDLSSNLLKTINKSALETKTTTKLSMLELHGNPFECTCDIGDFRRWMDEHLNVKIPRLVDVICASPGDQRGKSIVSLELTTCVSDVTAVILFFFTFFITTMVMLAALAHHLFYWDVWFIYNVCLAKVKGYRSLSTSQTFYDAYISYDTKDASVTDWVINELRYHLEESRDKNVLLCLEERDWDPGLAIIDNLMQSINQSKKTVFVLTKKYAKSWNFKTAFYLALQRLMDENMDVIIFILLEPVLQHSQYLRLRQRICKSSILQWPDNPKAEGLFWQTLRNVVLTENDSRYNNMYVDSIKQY
# Experiment: TLR8 stimulation determined using HEK-Blue Detection
# Type: cell-based
# Conditions: HEK-Blue hTLR8 cells, 16 hr, relative to Resiquimod or Motolimod maximum
# Source text: TLR8 Stimulation Determined Using HEK-Blue Detection
# This assay was designed for studying the stimulation of human TLR 8 protein in HEK-Blue hTLR8 tool cell line by monitoring the activation of NF-1B. HEK-Blue hTLR8 cells were obtained by co-transfection of the hTLR8 gene and an optimized secreted embryonic alkaline phosphatase (SEAP) reporter gene into HEK293 cells. The SEAP reporter gene was placed under the control of the IFN-β minimal promoter fused to five NF-κB and AP-1-binding sites. Stimulation with a TLR 8 ligand activates NF-κB and AP-1 which induce the expression of SEAP. Levels of SEAP can be easily determined with HEK-Blue Detection, a cell culture medium that allows for real-time detection of SEAP. HEK-Blue Detection contains all the nutrients necessary for cell growth and a specific SEAP color substrate. The hydrolysis of the substrate by SEAP produces a purple/blue color that can be measured with a spectrophotometer.
# When growing to 50-80% confluency, HEK-Blue hTLR7/8 cells were plated into 96-well plate (costar 3599) at a density of 40000 cells/well. Then compounds were added with serial dilutions over 10 points with a 1 nM-10 uM final concentration range in 0.1% DMSO/HEK-Blue Detection. The plates were then incubated for 16 hr at 37° C. in 5% CO2. The optical density at 620-655 nm was read on BMG PHERAstar FSX instrument. The EC50 for each compound was determined by calculating the percentages of the maximum activation identified with Resiquimod or Motolimod.
row,SMILES,EC50
1,"CCCCOc1nc(N)c2ncc(Cc3ccc4c(c3)CCN(C(C)C)C4)n2n1 [Compound A8, 2-butoxy-7-((2-isopropyl-1,2,3,4-tetrahydroisoquinolin-6-yl)methyl)imidazo[2,1-f][1,2,4]triazin-4-amine]",0.187 µM

# Target: T2, human TLR7 (Homo sapiens, UniProt Q9NYK1)
# T2 sequence (Q9NYK1 27-1049): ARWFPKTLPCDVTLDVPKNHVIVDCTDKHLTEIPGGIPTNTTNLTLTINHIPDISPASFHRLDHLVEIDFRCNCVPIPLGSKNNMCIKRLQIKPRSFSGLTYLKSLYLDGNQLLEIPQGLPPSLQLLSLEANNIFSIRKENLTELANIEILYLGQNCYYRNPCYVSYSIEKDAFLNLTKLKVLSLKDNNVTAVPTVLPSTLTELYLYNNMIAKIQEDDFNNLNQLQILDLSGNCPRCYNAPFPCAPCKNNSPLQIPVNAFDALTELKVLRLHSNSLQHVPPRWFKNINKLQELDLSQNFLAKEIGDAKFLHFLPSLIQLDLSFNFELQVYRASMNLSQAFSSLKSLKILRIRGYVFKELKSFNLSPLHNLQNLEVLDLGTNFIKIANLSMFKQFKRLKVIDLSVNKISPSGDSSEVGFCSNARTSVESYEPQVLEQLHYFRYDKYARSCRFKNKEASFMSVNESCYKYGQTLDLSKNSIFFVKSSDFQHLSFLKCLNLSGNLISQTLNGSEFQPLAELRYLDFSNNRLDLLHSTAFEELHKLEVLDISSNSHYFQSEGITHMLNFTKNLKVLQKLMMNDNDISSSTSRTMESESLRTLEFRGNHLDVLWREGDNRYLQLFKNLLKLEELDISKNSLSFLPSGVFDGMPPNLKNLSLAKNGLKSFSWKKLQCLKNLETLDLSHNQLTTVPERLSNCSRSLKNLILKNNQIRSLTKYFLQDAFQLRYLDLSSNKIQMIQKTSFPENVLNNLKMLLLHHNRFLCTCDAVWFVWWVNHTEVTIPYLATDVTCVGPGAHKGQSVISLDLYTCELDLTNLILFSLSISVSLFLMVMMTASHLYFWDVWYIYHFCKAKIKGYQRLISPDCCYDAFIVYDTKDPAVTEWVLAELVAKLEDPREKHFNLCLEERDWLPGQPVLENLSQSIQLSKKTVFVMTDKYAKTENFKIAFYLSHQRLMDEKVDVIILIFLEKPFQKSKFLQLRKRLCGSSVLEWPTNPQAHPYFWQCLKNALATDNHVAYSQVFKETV
# Experiment: HEK293-Blue hTLR7 reporter assay (QUANTI-BLUE, SEAP readout)
# Type: cell-based
# Set-up: host or cells: HEK293 (HEK-Blue-hTLR7)
# Conditions: HEK-Blue-hTLR7 cells, QUANTI-BLUE assay (A1-A76), 24 hrs
# Protocol: HEK293-Blue hTLR7 Reporter Assay:
# HEK-Blue-hTLR7 cell line (Invivogen, Cat. No. hkb-htlr7) was designed so that the expression of the secreted embryonic alkaline phosphatase (SEAP) was induced by activating NF-κ and AP-1 via stimulating human TLR7 with TLR7 agonists.
# HEK-Blue-hTLR7 cells were seeded at a density of 4×10^4 cells/well in a volume of 180 μL in a 96-well plate in DMEM (Cat. No. 11965-092) supplemented with 10% (v/v) heat-inactivated fetal bovine serum (FBS) (Gibco, 10099-1441), 100 U/ml penicillin and 100 μg/ml streptomycin (Gibco, 15140122) containing […], […] and 10% (v/v) heat-inactivated fetal bovine serum. The cells were settled for 5 hrs, then treated with increasing amounts of tested compounds at 37° C. for 24 hrs. Then 20 μL of the supernatant from each well was incubated with 180 uL Quanti-blue substrate solution at 37° C. for 10-30 mins before the activity of the SEAP was determined at 620-655 nm using a spectrophotometer. The EC50 value for each compound was calculated with GraphPad Prism software using the sigmoidal dose-response function.
row,SMILES,EC50
1,"CCCCOc1nc(N)c2ncc(Cc3ccc4c(c3)CCN(C(C)C)C4)n2n1 [Compound A8, 2-butoxy-7-((2-isopropyl-1,2,3,4-tetrahydroisoquinolin-6-yl)methyl)imidazo[2,1-f][1,2,4]triazin-4-amine]",3.03 µM
2,"CCCCOc1nc(N)c2ncc(Cc3ccc(OCCCN4CCOCC4)cc3)n2n1 [Compound A22, 2-butoxy-7-(4-(3-morpholinopropoxy)benzyl)imidazo[2,1-f][1,2,4]triazin-4-amine]",5.71 µM
3,"CCCCOc1nc(N)c2ncc(Cc3ccc(CN4CCCC4)cc3F)n2n1 [Compound A20, 2-butoxy-7-(2-fluoro-4-(pyrrolidin-1-ylmethyl)benzyl)imidazo[2,1-f][1,2,4]triazin-4-amine]",1.75 µM
4,"Nc1nc(O)nn2c(Cc3ccc(CN4CCCC4)cc3)cnc12 [Compound A65, 4-amino-7-(4-(pyrrolidin-1-ylmethyl)benzyl)imidazo[2,1-f][1,2,4]triazin-2-ol]",> 10 µM
5,"CCCCOc1nc(N)c2ncc(Cc3cnc(OCC(C)(C)CN(C)C)c(Cl)c3)n2n1 [Compound A45, 2-butoxy-7-((5-chloro-6-(3-(dimethylamino)-2,2-dimethylpropoxy)pyridin-3-yl)methyl)imidazo[2,1-f][1,2,4]triazin-4-amine]",3.84 µM
6,"CCCCOc1nc(N)c2ncc(Cc3cnc(OC4CCNCC4)c(Cl)c3)n2n1 [Compound A40, 2-butoxy-7-((5-chloro-6-(piperidin-4-yloxy)pyridin-3-yl)methyl)imidazo[2,1-f][1,2,4]triazin-4-amine]",0.602 µM
7,"CCCCOc1nc(N)c2ncc(Cc3cccc(CN4CCCC4)c3)n2n1 [Compound A11, 2-butoxy-7-(3-(pyrrolidin-1-ylmethyl)benzyl)imidazo[2,1-f][1,2,4]triazin-4-amine]",> 10 µM
8,"CCCCOc1nc(N)c2ncc(Cc3ccc(N(C)CCN(C)C)nc3)n2n1 [Compound A4, N^1-(5-((4-amino-2-butoxyimidazo[2,1-f][1,2,4]triazin-7-yl)methyl)pyridin-2-yl)-N^1,N^2,N^2-trimethylethane-1,2-diamine]",1.85 µM
9,"CCCCOc1nc(N)c2ncc(Cc3cccc(CN4CCN(C)CC4)c3)n2n1 [Compound A13, 2-butoxy-7-(3-((4-methylpiperazin-1-yl)methyl)benzyl)imidazo[2,1-f][1,2,4]triazin-4-amine]",> 10 µM
10,"CCCCOc1nc(N)c2ncc(Cc3ccc(OCC(C)(C)CN(C)C)nc3)n2n1 [Compound A53, 2-butoxy-7-((6-(3-(dimethylamino)-2,2-dimethylpropoxy)pyridin-3-yl)methyl)imidazo[2,1-f][1,2,4]triazin-4-amine]",1.43 µM
11,"CCCCOc1nc(N)c2ncc(Cc3ccc(OCCCN(C)C)c(C(=O)OC)c3)n2n1 [Compound A57, methyl 5-((4-amino-2-butoxyimidazo[2,1-f][1,2,4]triazin-7-yl)methyl)-2-(3-(dimethylamino)propoxy)benzoate]",0.375 µM
12,"CCCCOc1nc(N)c2ncc(Cc3ccccc3CN3CCCCC3)n2n1 [Compound A15, 2-butoxy-7-(2-(piperidin-1-ylmethyl)benzyl)imidazo[2,1-f][1,2,4]triazin-4-amine]",> 10 µM
13,"CCCCOc1nc(N)c2ncc(Cc3ccc(C4CCN(C)C4)cc3)n2n1 (centres unmarked) [Compound A66, 2-butoxy-7-(4-(1-methylpyrrolidin-3-yl)benzyl)imidazo[2,1-f][1,2,4]triazin-4-amine]",0.387 µM
14,"CCCCOc1nc(N)c2ncc(Cc3ccccc3OCCCN(C)C)n2n1 [Compound A27, 2-butoxy-7-(2-(3-(dimethylamino)propoxy)benzyl)imidazo[2,1-f][1,2,4]triazin-4-amine]",> 10 µM
15,"CCCCOc1nc(N)c2ncc(Cc3cccc(CN4CCCCC4)c3)n2n1 [Compound A7, 2-butoxy-7-(3-(piperidin-1-ylmethyl)benzyl)imidazo[2,1-f][1,2,4]triazin-4-amine]",> 10 µM
16,"CCCCOc1nc(N)c2ncc(Cc3cnn(CC4CCCNC4)c3)n2n1 (centres unmarked) [Compound A76, 2-butoxy-7-((1-(piperidin-3-ylmethyl)-1H-pyrazol-4-yl)methyl)imidazo[2,1-f][1,2,4]triazin-4-amine]",> 10 µM
17,"CCCCOc1nc(N)c2ncc(Cc3cc(CN4CCCC4)ccc3F)n2n1 [Compound A26, 2-butoxy-7-(2-fluoro-5-(pyrrolidin-1-ylmethyl)benzyl)Imidazo[2,1-f][1,2,4]triazin-4-amine]",> 10 µM
18,"CCCCOc1nc(N)c2ncc(Cc3ccc(-c4ccc(CN5CCCC5)cc4)cc3)n2n1 [Compound A30, 2-butoxy-7-((4′-(pyrrolidin-1-ylmethyl)-[1,1′-biphenyl]-4-yl)methyl)imidazo[2,1-f][1,2,4]triazin-4-amine]",3.52 µM
19,"CC(C)COc1nc(N)c2ncc(Cc3ccc(CN4CCCC4)cc3)n2n1 [Compound A54, 2-isobutoxy-7-(4-(pyrrolidin-1-ylmethyl)benzyl)imidazo[2,1-f][1,2,4]triazin-4-amine]",> 10 µM
